Assays:
rat [1] = conditions: Combined chronic toxicity/carcinogenicity; fischer; Oral; Feed; dose end: 104 week; group: systemic; systemic / pathology microscopic / stomach / adenocarcinoma + systemic / pathology microscopic / stomach / adenoma + systemic / in life …
mouse [2] = conditions: Carcinogenicity; b6c3f1; Oral; Feed; dose end: 96 week; group: systemic; systemic / pathology microscopic / stomach / adenoma + systemic / in life observation / body weight / body weight + systemic / in life …
rabbit = conditions: Prenatal developmental toxicity study, new zealand white, Oral, Gavage/Intubation, dose end: 19 GD
rat [3] = conditions: Prenatal developmental toxicity study; sprague dawley; Oral; Gavage/Intubation; dose end: 17 GD; group: maternal; systemic / in life observation / clinical signs / [other] + systemic / in life observation / clinical signs / ataxia + systemic / in life …
rat [4] = conditions: Peri- and post-natal toxicity study (Segment III), sprague dawley, Oral, Gavage/Intubation, dose end: 25 PND
rat [5] = conditions: Multigenerational reproductive toxicity study; sprague dawley; Oral; Gavage/Intubation; dose end: 1 generation; group: parental; systemic / in life observation / body weight / body weight gain + systemic / in life observation / clinical signs / skin discoloration + …
dog [6] = conditions: Chronic toxicity, beagle, Oral, Feed, dose end: 394 day, group: systemic
dog [7] = conditions: Subchronic oral toxicity in nonrodent, beagle, Feed, dose end: 98 day, group: systemic
rat [8] = conditions: Subchronic oral toxicity in rodents, wistar, Feed, dose end: 90 day, group: systemic
rat [9] = conditions: Multigenerational reproductive toxicity study, wistar, Oral, Feed, dose end: 2 generation
rat [10] = conditions: Prenatal developmental toxicity study, wistar, Oral, Gavage/Intubation, dose end: 20 GD
mouse [11] = conditions: Carcinogenicity, cd1, Oral, Feed, dose end: 78 week, group: systemic
mouse [12] = conditions: Subchronic oral toxicity in rodents, cd1, Feed, dose end: 90 day, group: systemic, systemic / organ weight / liver / relative to body weight + systemic / organ weight / liver / absolute + systemic / clinical chemistry / …
[13] = group: developmental, developmental / developmental landmark / incisor eruption / incisor eruption + developmental / developmental malformation / bone / delayed …
[14] = group: maternal, systemic / in life observation / body weight / body weight + systemic / in life observation / clinical signs / [other] + systemic / in life …
[15] = group: maternal, reproductive / offspring survival early / dead fetuses / dead fetuses
[16] = group: parental, systemic / in life observation / clinical signs / skin discoloration + systemic / in life observation / clinical signs / urine, …
[17] = systemic / clinical chemistry / alkaline phosphatase (alp/alk) / alkaline phosphatase (alp/alk) + systemic / clinical chemistry / gamma …
[18] = systemic / pathology microscopic / kidney / pigmentation
[19] = systemic / in life observation / body weight / body weight gain + systemic / in life observation / food consumption / food efficiency + …
[20] = systemic / hematology / hemoglobin (hgb) / hemoglobin (hgb)
[21] = systemic / in life observation / body weight / body weight + systemic / in life observation / body weight / body weight gain + systemic / in…
[22] = group: offspring, developmental / developmental malformation / bone / incomplete ossification + developmental / developmental landmark / preputial separation…
[23] = group: parental, systemic / in life observation / body weight / body weight gain
[24] = group: developmental, developmental / developmental malformation / bone / incomplete ossification
[25] = group: maternal, systemic / organ weight / liver / absolute + systemic / organ weight / liver / relative to body weight
[26] = systemic / clinical chemistry / alanine aminotransferase (alt/sgpt) / alanine aminotransferase (alt/sgpt) + systemic / clinical chemistry / …

## Oc1ccccc1O [Catechol]
Rat [1]
  LEL: 400 mg/kg/day
  LOAEL: > 400 mg/kg/day
  NEL: < 400 mg/kg/day
  NOAEL: ≥ 400 mg/kg/day
Mouse [2]
  LEL: 1200 mg/kg/day
  LOAEL: > 1200 mg/kg/day
  NEL: < 1200 mg/kg/day
  NOAEL: ≥ 1200 mg/kg/day

## CCc1cc(S(=O)(=O)O)c2cc(C(C)C)cccc1-2 [Egualen]
rabbit; [13]
  LEL: 135 mg/kg/day
  LOAEL: > 135 mg/kg/day
  NEL: 45 mg/kg/day
  NOAEL: ≥ 135 mg/kg/day
rabbit; [14]
  LEL: 135 mg/kg/day
  LOAEL: > 135 mg/kg/day
  NEL: 45 mg/kg/day
  NOAEL: ≥ 135 mg/kg/day
Rat [3]
  LEL: 77 mg/kg/day
  LOAEL: > 600 mg/kg/day
  NEL: 10 mg/kg/day
  NOAEL: ≥ 600 mg/kg/day
Rat [4]; [15]
  LEL: 300 mg/kg/day
  LOAEL: > 300 mg/kg/day
  NEL: 55 mg/kg/day
  NOAEL: ≥ 300 mg/kg/day
Rat [4]; [16]
  LEL: 55 mg/kg/day
  LOAEL: > 300 mg/kg/day
  NEL: 10 mg/kg/day
  NOAEL: ≥ 300 mg/kg/day
Rat [5]
  LEL: 200 mg/kg/day
  LOAEL: > 200 mg/kg/day
  NEL: 50 mg/kg/day
  NOAEL: ≥ 200 mg/kg/day

## CO/N=C(/C1=NOCCO1)c1ccccc1Oc1ncnc(Oc2ccccc2Cl)c1F [Fluoxastrobin]
Dog [6]; [17]
  LOAEL: 7.7 mg/kg/day
  NOAEL: 1.5 mg/kg/day
Dog [6]; [18]
  LEL: 0.7 mg/kg/day
  NEL: < 0.7 mg/kg/day
Dog [7]; systemic / in life observation / body weight / body weight gain + systemic / in life observation / food consumption / food efficiency
  LEL: 3 mg/kg/day
Dog [7]; [19]
  LOAEL: 24.2 mg/kg/day
  NEL: 1.4 mg/kg/day
  NOAEL: 3 mg/kg/day
Rat [8]; [20]
  LEL: 21.5 mg/kg/day
  NEL: < 21.5 mg/kg/day
Rat [8]; [21]
  LOAEL: 580 mg/kg/day
  NOAEL: 70.4 mg/kg/day
Rat [9]; [22]
  LEL: 862 mg/kg/day
  LOAEL: 862 mg/kg/day
  NEL: 77.4 mg/kg/day
  NOAEL: 77.4 mg/kg/day
Rat [9]; [23]
  LEL: 665 mg/kg/day
  LOAEL: 665 mg/kg/day
  NEL: 70 mg/kg/day
  NOAEL: 70 mg/kg/day
Rat [10]; [24]
  LEL: 300 mg/kg/day
  LOAEL: > 1000 mg/kg/day
  NEL: 100 mg/kg/day
  NOAEL: ≥ 1000 mg/kg/day
Rat [10]; [25]
  LEL: 1000 mg/kg/day
  LOAEL: > 1000 mg/kg/day
  NEL: 300 mg/kg/day
  NOAEL: ≥ 1000 mg/kg/day
Mouse [11]; [26]
  LOAEL: > 776 mg/kg/day
  NEL: 19 mg/kg/day
  NOAEL: ≥ 776 mg/kg/day
Mouse [11]; systemic / in life observation / body weight / body weight + systemic / organ weight / liver / relative to body weight
  LEL: 135 mg/kg/day
Mouse [12]
  LEL: 81.1 mg/kg/day
  LOAEL: > 1300 mg/kg/day
  NEL: < 81.1 mg/kg/day
  NOAEL: ≥ 1300 mg/kg/day

From EPA's ToxRefDB 2
